Key:
in vitro = conditions: PAMPA, pH 7.4
BRD3 BD2 WT [1] = target: T1, BRD3 BD2 WT (Homo sapiens, UniProt Q15059); test: competitive AlphaLISA; type: binding
[2] = system: L/V somatic BET bromodomains; test: ITC
BRD3 BD1 L/V [3] = target: T2, BRD3 BD1 L/V (Homo sapiens, UniProt Q15059, L70V); test: competitive AlphaLISA; type: binding
[4] = target: WT BET bromodomains (BD1 and BD2 of BRD2, BRD3 and BRD4); test: competitive AlphaLISA (Bio-JQ1 displacement); type: binding, human; conditions: mean and SD of all somatic bromodomains; active enantiomer concentration
BRDT BD1 WT = BRDT BD1 WT (Homo sapiens, UniProt Q58F21); test: competitive AlphaLISA; type: binding
BRD3 BD1 WT = BRD3 BD1 WT (Homo sapiens, UniProt Q15059); test: competitive AlphaLISA; type: binding
Plasma Half-life = conditions: BALB/c, mouse, pH 7.4
BRD4 BD2 L/V [5] = target: T3, BRD4 BD2 L/V (Homo sapiens, UniProt O60885, L387V); test: competitive AlphaLISA; type: binding
BRD2 BD2 L/V [6] = target: T4, BRD2 BD2 L/V (Homo sapiens, UniProt P25440, L383V); test: ITC; type: binding
BRD4 BD1 WT [7] = target: T5, BRD4 BD1 WT (Homo sapiens, UniProt O60885); test: ITC; type: binding
BRD2 BD2 WT = BRD2 BD2 WT (Homo sapiens, UniProt P25440); test: competitive AlphaLISA; type: binding
BRD2 BD1 WT [8] = target: T6, BRD2 BD1 WT (Homo sapiens, UniProt P25440); test: competitive AlphaLISA; type: binding
BRD3 BD2 WT [9] = target: T1, BRD3 BD2 WT; test: ITC; type: binding
BRD3 BD1 L/V [10] = target: T2, BRD3 BD1 L/V; test: ITC; type: binding
Intrinsic Clearance = conditions: mouse liver microsomes
BRDT BD2 WT = BRDT BD2 WT (Homo sapiens, UniProt Q58F21); test: competitive AlphaLISA; type: binding
BRD4 BD1 WT [11] = target: T5, BRD4 BD1 WT; test: competitive AlphaLISA; type: binding; conditions: AlphaLISA pIC50 Value BRD4 BD1 WT
BRD4 BD2 WT [12] = target: T7, BRD4 BD2 WT (Homo sapiens, UniProt O60885); test: competitive AlphaLISA; type: binding
BRD2 BD1 L/V [13] = target: T8, BRD2 BD1 L/V (Homo sapiens, UniProt P25440, L110V); test: ITC; type: binding
BRD4 BD1 L/V [14] = target: T9, BRD4 BD1 L/V (Homo sapiens, UniProt O60885, L94V); test: competitive AlphaLISA; type: binding; conditions: AlphaLISA pIC50 Value BRD4 BD1 L/V
BRD4 BD2 WT [15] = target: T7, BRD4 BD2 WT; test: ITC; type: binding
BRD4 BD1 L/V [16] = target: T9, BRD4 BD1 L/V; test: ITC; type: binding
BRD3 BD2 L/V [17] = target: T10, BRD3 BD2 L/V (Homo sapiens, UniProt Q15059, L345V); test: competitive AlphaLISA; type: binding
BRDT BD1 L/V = BRDT BD1 L/V (Homo sapiens, UniProt Q58F21, L63V); test: competitive AlphaLISA; type: binding
BRD2 BD2 L/V [18] = target: T4, BRD2 BD2 L/V; test: competitive AlphaLISA; type: binding
BRD2 BD1 WT [19] = target: T6, BRD2 BD1 WT; test: ITC; type: binding
[20] = system: L/V BET bromodomains (BD1 and BD2 of BRD2, BRD3 and BRD4); test: competitive AlphaLISA (Bio-JQ1 displacement); type: binding, human
BRD3 BD2 L/V [21] = target: T10, BRD3 BD2 L/V; test: ITC; type: binding
BRD2 BD1 L/V [22] = target: T8, BRD2 BD1 L/V; test: competitive AlphaLISA; type: binding
[23] = target: WT somatic BET bromodomains; test: ITC; conditions: mean and SD of all somatic bromodomains
BRD4 BD2 L/V [24] = target: T3, BRD4 BD2 L/V; test: ITC; type: binding
BRDT BD2 L/V = BRDT BD2 L/V (Homo sapiens, UniProt Q58F21, L306V); test: competitive AlphaLISA; type: binding

T1 sequence (Q15059 306-416): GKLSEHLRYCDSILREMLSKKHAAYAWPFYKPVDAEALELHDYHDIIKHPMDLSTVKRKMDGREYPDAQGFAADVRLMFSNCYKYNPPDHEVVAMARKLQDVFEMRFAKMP
T4 sequence (P25440 344-455 L383V): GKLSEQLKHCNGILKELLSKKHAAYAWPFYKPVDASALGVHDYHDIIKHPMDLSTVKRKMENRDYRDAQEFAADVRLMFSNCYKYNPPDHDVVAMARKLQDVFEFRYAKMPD
T2 sequence (Q15059 24-144 L70V limits assumed): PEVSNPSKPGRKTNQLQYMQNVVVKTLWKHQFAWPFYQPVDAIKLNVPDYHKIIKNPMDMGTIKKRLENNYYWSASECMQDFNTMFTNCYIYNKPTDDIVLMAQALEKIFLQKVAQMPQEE
T10 sequence (Q15059 306-416 L345V limits assumed): as the sequence (Q15059 306-416) above, with L40V counted along it
T8 sequence (P25440 71-176 L110V limits assumed): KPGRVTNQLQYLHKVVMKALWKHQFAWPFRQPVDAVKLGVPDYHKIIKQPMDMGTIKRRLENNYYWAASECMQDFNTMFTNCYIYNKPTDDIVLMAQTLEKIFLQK
T6 sequence (P25440 71-176): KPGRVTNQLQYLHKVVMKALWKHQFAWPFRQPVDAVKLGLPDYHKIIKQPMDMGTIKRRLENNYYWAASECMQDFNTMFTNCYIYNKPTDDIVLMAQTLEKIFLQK
Chain of BRD3 BD1 WT (Q15059 24-144): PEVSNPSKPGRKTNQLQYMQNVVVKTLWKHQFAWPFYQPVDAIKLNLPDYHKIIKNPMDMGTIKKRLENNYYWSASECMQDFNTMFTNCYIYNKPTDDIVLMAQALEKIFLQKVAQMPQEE
Chain of BRD2 BD2 WT (P25440 344-455): as the sequence (P25440 344-455 L383V) above, with V40L counted along it

CCNC(=O)[C@H](C)[C@@H]1N=C(c2ccc(Cl)cc2)c2ccc(OC)cc2-n2c(C)nnc21 (relative stereo) [Compound 21]
Papp (in vitro): 40 nm/s
IC50 (BRD3 BD2 WT [1]): 15.8 µM
ITC pKd ± SD Δ ([2]; L/V minus WT): 1.8 ± 0.5
ITC pKd ± SD L/V ([2]; mean and SD of all somatic bromodomains): 6.3 ± 0.2
IC50 (BRD3 BD1 L/V [3]): 0.501 µM
AlphaLISA pIC50 ± SD WT [4]: 4.7 ± 0.3
IC50 (BRDT BD1 WT): 50.1 µM
IC50 (BRD3 BD1 WT): 5.01 µM
half-life at 50 µM (Plasma Half-life): > 3 h
IC50 (BRD4 BD2 L/V [5]): 1.26 µM
Kd (BRD2 BD2 L/V [6]): 0.23 µM
ΔH BRD2 BD2 L/V (BRD2 BD2 L/V [6]; ITC): -20.1 kJ/mol
N BRD2 BD2 L/V (BRD2 BD2 L/V [6]; ITC stoichiometry): 0.84
Kd (BRD4 BD1 WT [7]): 39 µM
ΔH BRD4 BD1 WT (BRD4 BD1 WT [7]; ITC): -13.8 kJ/mol
IC50 (BRD2 BD2 WT): 15.8 µM
IC50 (BRD2 BD1 WT [8]): 39.8 µM
Kd (BRD3 BD2 WT [9]): 11 µM
ΔH BRD3 BD2 WT (BRD3 BD2 WT [9]; ITC): -18.8 kJ/mol
N BRD3 BD2 WT (BRD3 BD2 WT [9]; ITC stoichiometry): 0.46
Kd (BRD3 BD1 L/V [10]): 0.41 µM
ΔH BRD3 BD1 L/V (BRD3 BD1 L/V [10]; ITC): -44.8 kJ/mol
N BRD3 BD1 L/V (BRD3 BD1 L/V [10]; ITC stoichiometry): 0.92
CL int (Intrinsic Clearance): 1.5 ml min^–1 g^–1
IC50 (BRDT BD2 WT): 25.1 µM
IC50 (BRD4 BD1 WT [11]): 25.1 µM
IC50 (BRD4 BD2 WT [12]): 31.6 µM
Kd (BRD2 BD1 L/V [13]): 0.99 µM
ΔH BRD2 BD1 L/V (BRD2 BD1 L/V [13]; ITC): -36.8 kJ/mol
N BRD2 BD1 L/V (BRD2 BD1 L/V [13]; ITC stoichiometry): 0.97
IC50 (BRD4 BD1 L/V [14]): 1 µM
Kd (BRD4 BD2 WT [15]): > 60 µM
ΔH BRD4 BD1 L/V (BRD4 BD1 L/V [16]; ITC): -24.7 kJ/mol
N BRD4 BD1 L/V (BRD4 BD1 L/V [16]; ITC stoichiometry): 0.88
Kd (BRD4 BD1 L/V [16]; Kd BRD4 BD1 L/V, ITC, 30°C): 0.37 µM
IC50 (BRD3 BD2 L/V [17]): 0.501 µM
IC50 (BRDT BD1 L/V): 2.51 µM
IC50 (BRD2 BD2 L/V [18]): 1 µM
Kd (BRD2 BD1 WT [19]): > 60 µM
AlphaLISA pIC50 ± SD Δ ([20]; L/V minus WT): 1.3 ± 0.2
AlphaLISA pIC50 ± SD L/V ([20]; mean and SD of all somatic bromodomains, active enantiomer concentration): 6.0 ± 0.2
Kd (BRD3 BD2 L/V [21]): 0.8 µM
ΔH BRD3 BD2 L/V (BRD3 BD2 L/V [21]; ITC): -28 kJ/mol
N BRD3 BD2 L/V (BRD3 BD2 L/V [21]; ITC stoichiometry): 0.90
IC50 (BRD2 BD1 L/V [22]): 2 µM
ITC pKd ± SD WT [23]: 4.5 ± 0.4
Kd (BRD4 BD2 L/V [24]): 0.32 µM
ΔH BRD4 BD2 L/V (BRD4 BD2 L/V [24]; ITC): -18.4 kJ/mol
N BRD4 BD2 L/V (BRD4 BD2 L/V [24]; ITC stoichiometry): 1.06
IC50 (BRDT BD2 L/V): 1.58 µM

Source: paper PMC5909127, “Optimization of a “bump-and-hole” approach to allele-selective BET bromodomain inhibition” (Chemical Science, 2018)
